Patent US20210395239A1 (Hoffmann-La Roche Inc., priority 2018, published 2021)

Target: T1, hTLR9 (Homo sapiens, UniProt Q9NR96)
T1 sequence (Q9NR96 26-1032): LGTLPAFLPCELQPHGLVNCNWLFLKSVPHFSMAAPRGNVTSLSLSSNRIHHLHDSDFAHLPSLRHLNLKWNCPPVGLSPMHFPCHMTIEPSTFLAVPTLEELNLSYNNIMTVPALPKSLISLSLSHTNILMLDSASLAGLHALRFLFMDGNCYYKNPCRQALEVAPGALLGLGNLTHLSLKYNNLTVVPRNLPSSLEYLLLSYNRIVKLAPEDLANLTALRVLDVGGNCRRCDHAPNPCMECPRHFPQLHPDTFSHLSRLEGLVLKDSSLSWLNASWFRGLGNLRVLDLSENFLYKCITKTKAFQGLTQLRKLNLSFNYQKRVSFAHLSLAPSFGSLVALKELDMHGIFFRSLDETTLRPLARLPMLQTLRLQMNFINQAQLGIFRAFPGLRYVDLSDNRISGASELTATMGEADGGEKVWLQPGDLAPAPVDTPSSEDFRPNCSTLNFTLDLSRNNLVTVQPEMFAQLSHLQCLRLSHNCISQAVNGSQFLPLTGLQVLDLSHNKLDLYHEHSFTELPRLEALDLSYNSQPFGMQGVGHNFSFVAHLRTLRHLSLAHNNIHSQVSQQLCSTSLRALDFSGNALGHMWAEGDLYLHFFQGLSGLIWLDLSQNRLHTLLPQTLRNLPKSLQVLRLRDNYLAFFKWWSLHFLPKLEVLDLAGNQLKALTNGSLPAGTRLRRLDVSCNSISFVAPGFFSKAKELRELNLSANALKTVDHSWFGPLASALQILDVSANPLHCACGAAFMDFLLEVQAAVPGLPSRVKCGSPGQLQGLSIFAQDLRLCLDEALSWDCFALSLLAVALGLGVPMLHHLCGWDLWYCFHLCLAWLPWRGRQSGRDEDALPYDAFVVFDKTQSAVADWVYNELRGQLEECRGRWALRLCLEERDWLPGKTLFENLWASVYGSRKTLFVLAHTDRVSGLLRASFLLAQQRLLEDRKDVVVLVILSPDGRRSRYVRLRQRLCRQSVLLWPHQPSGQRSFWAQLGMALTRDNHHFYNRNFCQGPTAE
Experiment: HEK293-Blue-hTLR-9 cells assay (SEAP reporter, ODN2006 stimulation)
Format: cell-based
Parameters: host or cells: HEK293 (HEK-Blue hTLR9)
Details: HEK293-Blue-hTLR9 cells, ODN2006, 20 hrs; read-out: HEK/hTLR9 IC50
Outline: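 HEK293-Blue-hTLR9 cells with NF-κB/AP-1-driven SEAP reporter treated with serially diluted compound (1% DMSO final) plus ODN2006 for 20 h at 37 °C. Supernatant SEAP measured with QUANTI-Blue, 2 h at 37 °C, absorbance 620–655 nm; antagonism seen as reduced reporter signal.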

Row | SMILES | IC50 [nM]
1 | CO[C@H]1CN(c2nccc(N3CCN(C[C@H]4CN(c5ccc(C#N)c6ncccc56)C[C@@H](C)O4)CC3)n2)C[C@@H]1N [Example 26, 5-[(2S,6R)-2-[[4-[2-trans-(3-amino-4-methoxy-pyrrolidin-1-yl)pyrimidin-4-yl]piperazin-1-yl]methyl]-6-methyl-morpholin-4-yl]quinoline-8-carbonitrile] | 32
2 | Cc1cc(N2CCN(C[C@H]3CN(c4ccc(C#N)c5ncccc45)C[C@@H](C)O3)CC2)nc(N2CC(N)C(F)C2)n1 (stereo in doubt) [Example 54, 5-[(2S,6R)-2-[[4-[2-[(3S,4R)-3-amino-4-fluoro-pyrrolidin-1-yl]-6-methyl-pyrimidin-4-yl]piperazin-1-yl]methyl]-6-methyl-morpholin-4-yl]quinoline-8-carbonitrile] | 34
3 | C[C@@H]1CN(c2ccc(C#N)c3ncccc23)C[C@H](CN2CCN(c3cccc(N[C@H]4CNC[C@@H]4F)n3)CC2)O1 [Example 35, 5-[(2S,6R)-2-[[4-[6-[[(3S,4S)-4-fluoropyrrolidin-3-yl]amino]-2-pyridyl]piperazin-1-yl]methyl]-6-methyl-morpholin-4-yl]quinoline-8-carbonitrile] | 147
4 | C[C@@H]1CN(c2ccc(C#N)c3ncccc23)C[C@H](CN2CCN(c3cccc(C4CNCCO4)c3)CC2)O1 (stereo partly drawn) [Example 62, 5-[(2R,6S)-2-methyl-6-[[4-(3-morpholin-2-ylphenyl)piperazin-1-yl]methyl]-morpholin-4-yl]quinoline-8-carbonitrile] | 92
5 | C[C@@H]1CN(c2ccc(C#N)n3ncc(F)c23)C[C@H](CN2CCN(c3ccc(C[C@@H]4CNCCO4)cc3)CC2)O1 [Example 186, 3-fluoro-4-[(2R,6S)-2-methyl-6-[[4-[4-[[(2R)-morpholin-2-yl]methyl]phenyl]piperazin-1-yl]methyl]morpholin-4-yl]pyrazolo[1,5-a]pyridine-7-carbonitrile] | 124

The remaining compounds from weak to strong by IC50, led by results:

Row | IC50 [nM] | SMILES
6 | 121 | C[C@@H]1CN(c2ccc(C#N)c3ncccc23)C[C@H](CN2CCN(c3ncc(C#N)c(N4CCNCC4)n3)CC2)O1 [Example 51, 5-[(2S,6R)-2-[[4-(5-cyano-4-piperazin-1-yl-pyrimidin-2-yl)piperazin-1-yl]methyl]-6-methyl-morpholin-4-yl]quinoline-8-carbonitrile]
7 | 78 | C[C@@H]1CN(c2ccc(C#N)n3ncc(F)c23)C[C@H](CN2CCN(c3ccc(N4CC5(CNCCO5)C4)nc3)CC2)O1 [Example 169, 3-fluoro-4-[(2R,6S)-2-methyl-6-[[4-[6-(5-oxa-2,8-diazaspiro[3.5]nonan-2-yl)-3-pyridyl]piperazin-1-yl]methyl]morpholin-4-yl]pyrazolo[1,5-a]pyridine-7-carbonitrile]
8 | 39 | C[C@@H]1CN(c2cc(=O)n(C)c3ncccc23)C[C@H](CN2CC(c3ccc(N4C[C@H]5NCCO[C@@H]5C4)cc3)C2)O1 [Example 182, 4-[(2S,6R)-2-[[3-[4-[(4aR,7aR)-3,4,4a,5,7,7a-hexahydro-2H-pyrrolo[3,4-b][1,4]oxazin-6-yl]phenyl]azetidin-1-yl]methyl]-6-methyl-morpholin-4-yl]-1-methyl-1,8-naphthyridin-2-one]
9 | 35 | Cc1cc(N2CCN(C[C@H]3CN(c4ccc(C#N)c5nccnc45)C[C@@H](C)O3)CC2)nc(N2CCNCC2)n1 [Example 64, 8-[(2R,6S)-2-methyl-6-[[4-(6-methyl-2-piperazin-1-yl-pyrimidin-4-yl)piperazin-1-yl]methyl]morpholin-4-yl]quinoxaline-5-carbonitrile]
10 | 32 | Cc1cc(N2CCN(C[C@H]3CN(c4ccc(C#N)c5ncccc45)C[C@@H](C)O3)CC2)nc(N2C[C@@H](N)[C@@H](F)C2)n1 [Example 55, 5-[(2S,6R)-2-[[4-[2-[(3R,4S)-3-amino-4-fluoro-pyrrolidin-1-yl]-6-methyl-pyrimidin-4-yl]piperazin-1-yl]methyl]-6-methyl-morpholin-4-yl]quinoline-8-carbonitrile]
